Test results as given in patent EP4219453A1 (Sichuan Kelun-Biotech Biopharmaceutical Co., Ltd., priority 2020, dated 2022).

Key:
TGFβR1 = target: T1, TGFβR1 (Homo sapiens, UniProt P36897); test: In vitro enzymatic activity inhibition test (TGFβR1), ADP-Glo Kinase Detection Kit; assay type: biochemical; details: calculated from percent inhibition at 1000 nM, 100 nM, 10 nM
T1 sequence (P36897 34-503): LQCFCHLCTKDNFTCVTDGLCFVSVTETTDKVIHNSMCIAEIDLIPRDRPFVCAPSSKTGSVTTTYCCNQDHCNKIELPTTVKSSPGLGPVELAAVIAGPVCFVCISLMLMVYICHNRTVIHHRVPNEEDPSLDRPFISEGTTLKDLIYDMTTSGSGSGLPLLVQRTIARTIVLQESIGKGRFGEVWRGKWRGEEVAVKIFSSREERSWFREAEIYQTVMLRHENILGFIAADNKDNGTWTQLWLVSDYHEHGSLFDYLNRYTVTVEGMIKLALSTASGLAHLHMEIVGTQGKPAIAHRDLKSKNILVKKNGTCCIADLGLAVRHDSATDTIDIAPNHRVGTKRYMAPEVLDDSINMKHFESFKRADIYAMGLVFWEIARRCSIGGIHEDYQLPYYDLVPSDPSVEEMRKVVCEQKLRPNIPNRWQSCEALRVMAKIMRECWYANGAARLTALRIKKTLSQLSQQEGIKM
Experimental: Test Example 1: In vitro enzymatic activity inhibition test (TGFβR1).
(§1) Experimental method: According to the instructions of ADP-Glo™ Kinase Detection Kit (Promega), the inhibitory effect of the compounds of the present invention on the enzymatic activity of TGFβR1 was determined, and the steps were as follows: TGFβR1 enzyme were pre-incubated with different concentrations of test compounds (1000 nM, 100 nM, 10 nM) at 30°C for 30 min, TGFβR1 peptide and adenosine triphosphate (ATP) were added to initiate the reaction. The incubation was performed at 30°C for 3 h, followed by an addition of ADP-Glo™ reagent and incubated at room temperature for 90 min, kinase detection reagent was then added. Chemiluminescence signal values were detected after incubation at room temperature for another 30 min.
(§2) When the percent inhibition rate was between 30% and 80%, the median inhibitory concentration (IC50) or range of the compound was calculated according to the following formula: IC50 = X × (1 - percent inhibition rate (%)) / percent inhibition rate (%), wherein X is the concentration of the compound at which the inhibition rate is between 30% and 80%.

TGFβR2 = TGFβR2 (Homo sapiens, UniProt P37173); test: In vitro enzymatic activity inhibition test (TGFβR2), ADP-Glo Kinase Detection Kit; assay type: biochemical; details: MBP substrate, calculated from percent inhibition at 1000nM, 100nM, 10nM
Sequence of TGFβR2 (P37173 23-567): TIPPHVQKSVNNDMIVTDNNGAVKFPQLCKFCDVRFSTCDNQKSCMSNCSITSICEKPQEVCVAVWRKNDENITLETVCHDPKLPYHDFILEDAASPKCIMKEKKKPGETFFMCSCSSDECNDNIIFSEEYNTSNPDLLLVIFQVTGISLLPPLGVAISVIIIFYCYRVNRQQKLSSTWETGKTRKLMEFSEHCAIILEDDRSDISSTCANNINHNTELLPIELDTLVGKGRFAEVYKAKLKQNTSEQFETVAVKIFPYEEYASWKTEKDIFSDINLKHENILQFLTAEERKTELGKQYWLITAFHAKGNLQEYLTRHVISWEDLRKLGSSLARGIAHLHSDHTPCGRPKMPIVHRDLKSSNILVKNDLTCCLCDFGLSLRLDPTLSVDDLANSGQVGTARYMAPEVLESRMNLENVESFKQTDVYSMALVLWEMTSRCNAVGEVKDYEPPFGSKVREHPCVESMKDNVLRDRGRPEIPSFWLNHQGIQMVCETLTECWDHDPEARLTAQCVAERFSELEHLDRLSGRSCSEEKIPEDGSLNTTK
Experimental: Test Example 2: In vitro enzymatic activity inhibition test (TGFβR2).
as §1, with “TGFβR2” for “TGFβR1”, “(1000nM, 100nM, 10nM)” for “(1000 nM, 100 nM, 10 nM)”, “myelin basic protein (MBP)” for “TGFβR1 peptide”, “The chemiluminescence” for “Chemiluminescence”
as §2, with “percent inhibition was between” for “percent inhibition rate was between”

[1] = system: TGFβ/Smads signaling pathway in HEK293-SBE cells; test: In vitro cell activity inhibition test, Bright-Glo luciferase reporter in HEK293-SBE cells; assay type: cell-based; details: TGFβ 0.5 ng/ml, luciferase reporter gene method
Experimental: Test Example 3: In vitro cell activity inhibition test
Experimental method: According to the instructions of Bright-Glo™ luciferase detection kit (Promega), the inhibitory effect of the compounds of the present invention on TGFβ/Smads signaling pathway in HEK293-SBE cells was determined. The steps were as follows: HEK293-SBE cells (Bps bioscience) were added to a 96-well plate (10% FBS medium), 30,000/well, and cultured overnight at 37°C and 5% CO2. The medium was changed to 0.5% FBS medium, and the test compound diluted in 0.5% FBS medium was added. The highest final concentration of the test compound was 10 µM with 4-fold dilution, and a total of 8 concentration gradients. After 4-5 hours of incubation, 10 µl of TGFβ was added. The final concentration of TGFβ was 0.5 ng/ml. 10 µl of medium added in replace of TGFβ was the negative control. In the blank control, no test compound was added, and TGFβ was added. Bright Glo reagent was added to each well, and the chemiluminescence signal value was read on a microplate reader.
The percent inhibition rates of the test compound at different concentrations were plotted against the compound concentrations, the curve was fitted according to the four-parameter model, and the IC50 value was calculated by the following formula: y = Min + (Max - Min) / (1 + (x / IC50) ^ (-Hillslope)), wherein: y is percentage inhibition rate; Max and Min are the maximum and minimum values of the fitted curve, respectively; x is the logarithmic concentration of compound; and Hillslope is the slope of the curve.

SMILES	IC50 (TGFβR1)	IC50 (TGFβR2)	IC50 [1]
Cc1cccc(-n2nccc2-c2ccn3ncnc3c2)n1 [Example 2, 7-(1-(6-methylpyridin-2-yl)-1H-pyrazol-5-yl)-[1,2,4]triazolo[1,5-a]pyridine]	9.83 ± 4.79 nM	> 1000 nM	
Cc1cccc(-n2nccc2-c2ccn3nccc3c2)n1 [Example 3, 5-(1-(6-methylpyridin-2-yl)-1H-pyrazol-5-yl) pyrazolo[1,5-a]pyridine]	43.8 ± 6.08 nM	> 1000 nM	29.1 ± 2.5 nM
Cc1cc(CNc2cc(-c3ccc4ncsc4c3)n(-c3cccc(C)n3)n2)ccn1 [Example 9, 5-(benzo[d]thiazol-6-yl)-1-(6-methylpyridin-2-yl)-N-((2-methylpyridin-4-yl)methyl)-1H-pyrazol-3-amine]	27.4 ± 4.89 nM		43.2 ± 2.54 nM
